Experiment in all cases: relative viability (nuclei count vs DMSO), 5 days (fraction); higher = more cells survive
Compound in the experiment “Linifanib + Linsitinib”: Cc1ccc(F)c(NC(=O)Nc2ccc(-c3cccc4[nH]nc(N)c34)cc2)c1 [Linifanib] + C[C@]1(O)C[C@@H](c2nc(-c3ccc4ccc(-c5ccccc5)nc4c3)c3c(N)nccn32)C1 [Linsitinib] (partner 1 µM)
In a few lines:
(§1)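 Lung cancer cell lines were seeded in 1536-well plates and dosed by pin tool the next day, with either a single drug or a fixed anchor-drug dose combined with five library-drug doses (not always all listed) spaced in √10 steps. Five days later, one step fixed the cells and stained their nuclei (final 0.05% Triton X-100, 1% formaldehyde, 1 ug/ml Hoechst), and nuclei were counted on 4× images. Relative viability is the nuclei count in treated wells divided by the count in vehicle wells, and each value is the median of duplicate plates.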

Compound in the experiment “Linifanib + Olaparib”: Cc1ccc(F)c(NC(=O)Nc2ccc(-c3cccc4[nH]nc(N)c34)cc2)c1 [Linifanib] + O=C(c1cc(Cc2n[nH]c(=O)c3ccccc23)ccc1F)N1CCN(C(=O)C2CC2)CC1 [Olaparib] (partner 8 µM)
Summed up: as §1

Compound in the experiment “Linifanib + AZD7762”: Cc1ccc(F)c(NC(=O)Nc2ccc(-c3cccc4[nH]nc(N)c34)cc2)c1 [Linifanib] + NC(=O)Nc1cc(-c2cccc(F)c2)sc1C(=O)N[C@H]1CCCNC1 [AZD7762] (partner 0.2 µM)
In a few lines: as §1

Compound in the experiment “Linifanib + Lapatinib”: Cc1ccc(F)c(NC(=O)Nc2ccc(-c3cccc4[nH]nc(N)c34)cc2)c1 [Linifanib] + CS(=O)(=O)CCNCc1ccc(-c2ccc3ncnc(Nc4ccc(OCc5cccc(F)c5)c(Cl)c4)c3c2)o1 [Lapatinib] (partner 2 µM)
In a few lines:
as §1

Compound in the experiment “Linifanib + Tozasertib”: Cc1ccc(F)c(NC(=O)Nc2ccc(-c3cccc4[nH]nc(N)c34)cc2)c1 [Linifanib] + Cc1cc(Nc2cc(N3CCN(C)CC3)nc(Sc3ccc(NC(=O)C4CC4)cc3)n2)n[nH]1 [Tozasertib] (partner 0.1 µM)
In a few lines: as §1

Compound in the experiment “Linifanib + Pictilisib”: Cc1ccc(F)c(NC(=O)Nc2ccc(-c3cccc4[nH]nc(N)c34)cc2)c1 [Linifanib] + CS(=O)(=O)N1CCN(Cc2cc3nc(-c4cccc5[nH]ncc45)nc(N4CCOCC4)c3s2)CC1 [Pictilisib] (partner 1 µM)
In a few lines:
as §1

For ABC-1, the relative viability with Linifanib + Linsitinib (first compound 0.03162 µM) came out at 0.825; in the experiment with Linifanib + Linsitinib (first compound 0.1 µM), 1.03; with Linifanib + Linsitinib (first compound 0.3162 µM) it was 0.788; in the experiment with Linifanib + Olaparib (first compound 0.03162 µM), 0.765; in the experiment with Linifanib + Olaparib (first compound 0.1 µM) it was 0.725; with Linifanib + Olaparib (first compound 0.3162 µM), 0.681. Also, the relative viability stood at 0.869 in the experiment with Linifanib + AZD7762 (first compound 0.03162 µM); 0.767 with Linifanib + AZD7762 (first compound 0.3162 µM); 1.15 in the experiment with Linifanib + Lapatinib (first compound 0.03162 µM); 1.13 in the experiment with Linifanib + Lapatinib (first compound 0.1 µM); 0.93 in the experiment with Linifanib + Lapatinib (first compound 0.3162 µM); 0.152 in the experiment with Linifanib + Tozasertib (first compound 0.03162 µM). In addition, the relative viability with Linifanib + Tozasertib (first compound 0.1 µM) is 0.173; in the experiment with Linifanib + Tozasertib (first compound 0.3162 µM), 0.176; with Linifanib + Pictilisib (first compound 0.03162 µM) it was 0.759; with Linifanib + Pictilisib (first compound 0.1 µM) it was 0.953; with Linifanib + Pictilisib (first compound 0.3162 µM), 0.742.

Turning to NCI-H727, the relative viability with Linifanib + Linsitinib (first compound 0.03162 µM) is 0.224; in the experiment with Linifanib + Linsitinib (first compound 0.1 µM), 0.291; in the experiment with Linifanib + Linsitinib (first compound 0.3162 µM), 0.222; with Linifanib + Olaparib (first compound 0.03162 µM) it was 0.938; in the experiment with Linifanib + Olaparib (first compound 0.1 µM), 0.744; with Linifanib + Olaparib (first compound 0.3162 µM), 0.784. The relative viability in the experiment with Linifanib + AZD7762 (first compound 0.03162 µM) came to 0.602; with Linifanib + AZD7762 (first compound 0.1 µM) it was 0.62; in the experiment with Linifanib + AZD7762 (first compound 0.3162 µM) it was 0.358; in the experiment with Linifanib + Lapatinib (first compound 0.03162 µM), 0.781; in the experiment with Linifanib + Lapatinib (first compound 0.1 µM) it was 1.05; in the experiment with Linifanib + Lapatinib (first compound 0.3162 µM), 0.716. The relative viability was 0.535 with Linifanib + Tozasertib (first compound 0.03162 µM); 0.659 with Linifanib + Tozasertib (first compound 0.1 µM); 0.529 with Linifanib + Tozasertib (first compound 0.3162 µM); 0.3 in the experiment with Linifanib + Pictilisib (first compound 0.03162 µM); 0.431 with Linifanib + Pictilisib (first compound 0.1 µM); 0.385 with Linifanib + Pictilisib (first compound 0.3162 µM).

With NCI-H1355, the relative viability with Linifanib + Linsitinib (first compound 0.03162 µM) worked out at 0.843; in the experiment with Linifanib + Linsitinib (first compound 0.1 µM), 0.876; with Linifanib + Linsitinib (first compound 0.3162 µM) it was 0.852; with Linifanib + Olaparib (first compound 0.03162 µM) it was 0.768; with Linifanib + Olaparib (first compound 0.1 µM) it was 0.832; with Linifanib + Olaparib (first compound 0.3162 µM) it was 0.726. Besides, the relative viability with Linifanib + AZD7762 (first compound 0.03162 µM) was determined as 0.648; with Linifanib + AZD7762 (first compound 0.1 µM), 0.765; in the experiment with Linifanib + AZD7762 (first compound 0.3162 µM), 0.792; in the experiment with Linifanib + Lapatinib (first compound 0.03162 µM) it was 1.04; with Linifanib + Lapatinib (first compound 0.1 µM), 0.934; with Linifanib + Lapatinib (first compound 0.3162 µM), 1.01. In addition, the relative viability with Linifanib + Tozasertib (first compound 0.03162 µM) was found to be 0.504; in the experiment with Linifanib + Tozasertib (first compound 0.1 µM), 0.547; in the experiment with Linifanib + Tozasertib (first compound 0.3162 µM), 0.551; with Linifanib + Pictilisib (first compound 0.03162 µM), 0.463; with Linifanib + Pictilisib (first compound 0.1 µM), 0.401; with Linifanib + Pictilisib (first compound 0.3162 µM), 0.433.

Regarding LU99A, the relative viability was 0.503 in the experiment with Linifanib + Linsitinib (first compound 0.03162 µM); 0.551 with Linifanib + Linsitinib (first compound 0.1 µM); 0.505 in the experiment with Linifanib + Linsitinib (first compound 0.3162 µM); 0.289 in the experiment with Linifanib + Olaparib (first compound 0.03162 µM); 0.25 with Linifanib + Olaparib (first compound 0.1 µM); 0.287 in the experiment with Linifanib + Olaparib (first compound 0.3162 µM). The relative viability in the experiment with Linifanib + AZD7762 (first compound 0.03162 µM) is 0.378; in the experiment with Linifanib + AZD7762 (first compound 0.1 µM), 0.433; with Linifanib + AZD7762 (first compound 0.3162 µM) it was 0.356; with Linifanib + Lapatinib (first compound 0.03162 µM), 1.07; with Linifanib + Lapatinib (first compound 0.1 µM), 1.06; with Linifanib + Lapatinib (first compound 0.3162 µM), 1.05. Also, the relative viability with Linifanib + Tozasertib (first compound 0.03162 µM) worked out at 0.277; in the experiment with Linifanib + Tozasertib (first compound 0.1 µM), 0.306; in the experiment with Linifanib + Tozasertib (first compound 0.3162 µM) it was 0.317; with Linifanib + Pictilisib (first compound 0.03162 µM), 0.317; with Linifanib + Pictilisib (first compound 0.1 µM), 0.349; with Linifanib + Pictilisib (first compound 0.3162 µM) it was 0.325.

These data come from the supplement of paper PMC10307832.
